Test results: the CheMixHub viscosity set
“And” between values parts separate entries of the source, which are not always exact repeats. Equal entries are not always repeated.

Assay: xn = mol fraction of the nth substance listed

Brc1ccccc1 + Cc1cccc(C)c1
101 kPa
Conditions	viscosity [mPa·s]
293.15 K, x1 = 0.112	0.626
293.15 K, x1 = 0.2214	0.677
293.15 K, x1 = 0.3339	0.723
293.15 K, x1 = 0.5406	0.818
293.15 K, x1 = 0.6754	0.89
293.15 K, x1 = 0.7672	0.936
293.15 K, x1 = 0.848	0.978
293.15 K, x1 = 0.9095	1.01
298.15 K, x1 = 0.11	0.592
298.15 K, x1 = 0.2179	0.635
298.15 K, x1 = 0.3324	0.685
298.15 K, x1 = 0.4083	0.715
298.15 K, x1 = 0.5319	0.768
298.15 K, x1 = 0.6412	0.819
298.15 K, x1 = 0.7163	0.853
298.15 K, x1 = 0.866	0.927
303.15 K, x1 = 0.1106	0.555
303.15 K, x1 = 0.2212	0.592
303.15 K, x1 = 0.3352	0.639
303.15 K, x1 = 0.414	0.67
303.15 K, x1 = 0.5251	0.712
303.15 K, x1 = 0.6553	0.767
303.15 K, x1 = 0.765	0.815
303.15 K, x1 = 0.8807	0.866

BrCCBr + Cc1ccccc1
101.33 kPa
Conditions	viscosity [mPa·s]
298.15 K, x1 = 0.1229	0.6433
298.15 K, x1 = 0.2578	0.6736
298.15 K, x1 = 0.348	0.7383
298.15 K, x1 = 0.4549	0.8563
298.15 K, x1 = 0.5548	0.9001
298.15 K, x1 = 0.6537	1.015
298.15 K, x1 = 0.746	1.105
298.15 K, x1 = 0.8331	1.268
298.15 K, x1 = 0.9171	1.381
308.15 K, x1 = 0.1176	0.5499
308.15 K, x1 = 0.2377	0.6
308.15 K, x1 = 0.3568	0.6572
308.15 K, x1 = 0.4489	0.7283
308.15 K, x1 = 0.5524	0.8275
308.15 K, x1 = 0.652	0.9069
308.15 K, x1 = 0.7416	0.9937
308.15 K, x1 = 0.8319	1.111
308.15 K, x1 = 0.9144	1.233

Brc1ccccc1 + Cc1ccccc1
101 kPa
Conditions	viscosity [mPa·s]
293.15 K, x2 = 0.2	1.001
293.15 K, x2 = 0.4	0.885
293.15 K, x2 = 0.6	0.778
293.15 K, x2 = 0.8	0.677
298.15 K, x1 = 0.129	0.613
298.15 K, x1 = 0.267	0.672
298.15 K, x1 = 0.379	0.72
298.15 K, x1 = 0.505	0.786
298.15 K, x1 = 0.629	0.851
298.15 K, x1 = 0.736	0.91
298.15 K, x1 = 0.853	0.981
298.15 K, x1 = 0.882	0.996
298.15 K, x2 = 0.53	0.75
298.15 K, x2 = 0.623	0.7
298.15 K, x2 = 0.72	0.658
298.15 K, x2 = 0.869	0.603
303.15 K, x1 = 0.101	0.581
303.15 K, x1 = 0.129	0.574
303.15 K, x1 = 0.202	0.635
303.15 K, x1 = 0.267	0.626
303.15 K, x1 = 0.303	0.689
303.15 K, x1 = 0.379	0.674
303.15 K, x1 = 0.403	0.74
303.15 K, x1 = 0.503	0.788
303.15 K, x1 = 0.505	0.729
303.15 K, x1 = 0.603	0.831
303.15 K, x1 = 0.629	0.792
303.15 K, x1 = 0.703	0.877
303.15 K, x1 = 0.736	0.857
303.15 K, x1 = 0.802	0.918
303.15 K, x1 = 0.853	0.92
303.15 K, x1 = 0.882	0.938
303.15 K, x1 = 0.901	0.957
313.15 K, x2 = 0.2	0.786
313.15 K, x2 = 0.4	0.697
313.15 K, x2 = 0.6	0.614
313.15 K, x2 = 0.8	0.537

C1=C[C@H]2[C@@H](C1)[C@H]1C=C[C@@H]2C1 + Cc1ccccc1
viscosity [mPa·s], 101.2 kPa
Conditions	x1 = 0.1024	x1 = 0.2018	x1 = 0.3008	x1 = 0.4006	x1 = 0.4997	x1 = 0.606	x1 = 0.7014	x1 = 0.7987	x1 = 0.8991
293.15 K	0.6849	0.7905	0.9144	1.08	1.279	1.57	1.948	2.495	3.305
298.15 K	0.6448	0.7387	0.8543	1.001	1.174	1.44	1.758	2.24	2.96
303.15 K	0.6068	0.69	0.7952	0.9255	1.083	1.313	1.602	2.024	2.665
308.15 K	0.5742	0.6559	0.7533	0.8681	1.019	1.222	1.486	1.875	2.43
313.15 K	0.5451	0.6205	0.7071	0.8118	0.9488	1.135	1.375	1.718	2.208
318.15 K	0.5187	0.5889	0.6667	0.76	0.8866	1.062	1.283	1.58	2.012

C1COCCO1 + Cc1ccccc1
101 kPa
Conditions	viscosity
293.15 K, x1 = 0.6506	1.045 mPa·s
303.15 K, x1 = 0.0992	0.556 mPa·s
303.15 K, x1 = 0.1216	0.5749 mPa·s
303.15 K, x1 = 0.122	0.573 mPa·s
303.15 K, x1 = 0.1993	0.591 mPa·s
303.15 K, x1 = 0.2367	0.6251 mPa·s
303.15 K, x1 = 0.237	0.622 mPa·s
303.15 K, x1 = 0.2925	0.628 mPa·s
303.15 K, x1 = 0.347	0.675 mPa·s
303.15 K, x1 = 0.3999	0.676 mPa·s
303.15 K, x1 = 0.453	0.7299 mPa·s and 0.729 mPa·s
303.15 K, x1 = 0.4961	0.723 mPa·s
303.15 K, x1 = 0.554	0.779 mPa·s
303.15 K, x1 = 0.5541	0.781 mPa·s
303.15 K, x1 = 0.5981	0.778 mPa·s
303.15 K, x1 = 0.65	0.831 mPa·s
303.15 K, x1 = 0.6504	0.8368 mPa·s
303.15 K, x1 = 0.6985	0.843 mPa·s
303.15 K, x1 = 0.7438	0.8912 mPa·s
303.15 K, x1 = 0.744	0.882 mPa·s
303.15 K, x1 = 0.8009	0.918 mPa·s
303.15 K, x1 = 0.8327	0.9416 mPa·s
303.15 K, x1 = 0.833	0.939 mPa·s
303.15 K, x1 = 0.8967	0.998 mPa·s
303.15 K, x1 = 0.918	0.9965 mPa·s and 0.995 mPa·s
308.15 K, x1 = 0.1	0.533 mPa·s
308.15 K, x1 = 0.3	0.593 mPa·s
308.15 K, x1 = 0.4	0.629 mPa·s
308.15 K, x1 = 0.5	0.669 mPa·s
308.15 K, x1 = 0.6	0.709 mPa·s
308.15 K, x1 = 0.7	0.764 mPa·s
308.15 K, x1 = 0.9	0.893 mPa·s

COC(=O)CC(=O)OC + Cc1ccccc1
303.15 K, 101 kPa
Conditions	viscosity [mPa·s]
x1 = 0.0934	0.5584
x1 = 0.1891	0.6061
x1 = 0.2852	0.6706
x1 = 0.3836	0.7507
x1 = 0.4821	0.8493
x1 = 0.5831	0.9701
x1 = 0.6852	1.122
x1 = 0.7891	1.307
x1 = 0.8932	1.522

COc1ccccc1O + Cc1ccccc1
303.15 K, 101 kPa
Conditions	viscosity [mPa·s]
x2 = 0.1	3.17
x2 = 0.2	2.47
x2 = 0.3	1.83
x2 = 0.4	1.5
x2 = 0.5	1.2
x2 = 0.6	0.981
x2 = 0.7	0.815
x2 = 0.8	0.7
x2 = 0.9	0.599
